Results: patent publication US10385065B2, “Antibacterial compounds” (priority 2014, dated 2019)
Values after ≈ are worked out from the molar mass of the structure shown. Read-outs that look alike come from different tables or passages of the source.

What was measured:
Format in all cases: cell-based
[1] = test system: human hepatic cell line (HepG2 ATCC HB-8065); assay: Human cell viability assay (CellTiter-Glo), HepG2; conditions: HepG2, 24 h incubation, tested over 1-128 μg/mL, read-out: IC50 values against HepG2
Method: Compounds are assessed for potential non-specific cytotoxic effects against a human hepatic cell line (HepG2 ATCC HB-8065). HepG2 cells are seeded at 20,000 cells/well in 96-well microtitre plates in minimal essential medium (MEM) supplemented with a final concentration of 10% FBS and 1 mM sodium pyruvate. After 24 h compound dilutions are prepared in Dulbecco's minimum essential media (DMEM) supplemented with final concentrations of 0.001% FBS, 0.3% bovine albumin and 0.02% HEPES and added to cells. Compounds are tested in two-fold serial dilutions over a final concentration range of 1-128 μg/mL in a final DMSO concentration of 1% vol/vol. Chlorpromazine is used as a positive control. Cells are incubated with compound at 37° C. and 5% CO2 for a further 24 h, after which time the CellTiter-Glo reagent (Promega) is added. Luminescence is measured on a BMG Omega plate reader. Data are analysed using GraphPad Prism software to determine the concentration of compound that inhibits cell viability by fifty percent (IC50).

[2] = test system: Staphylococcus aureus ATCC 29213; assay: MIC, broth microdilution, S. aureus ATCC 29213
[3] = test system: Escherichia coli ATCC 25922; assay: MIC, broth microdilution, E. coli ATCC 25922; conditions: ATCC25922, Table 1, wild type strain
[4] = test system: Enterococcus faecium ATCC 19434; assay: MIC, E. faecium ATCC 19434; conditions: ATCC19434, Table 2
[5] = test system: Haemophilus influenzae ATCC 49247; assay: MIC, H. influenzae ATCC 49247; conditions: ATCC49247, Table 4
[6] = ATCC29213, Table 1, wild type strain, read-out: MIC S. aureus ATCC 29213
[7] = ATCC 29213 / MSSA, Table 2, read-out: MIC S. aureus (MSSA) ATCC 29213 CLSI control strain

Compound	IC50 [1] [µg/mL]	MIC [2, 6] [µg/mL]	MIC [2, 7] [µg/mL]	MIC [3] [µg/mL]	MIC [4] [µg/mL]	MIC [5] [µg/mL]
O=C(O)c1cn(C2CC2)c2cc(N3CCNCC3)c(F)cc2c1=O [Ciprofloxacin, reference compound]	> 100	–	–	–	–	–
Cc1c(-c2ccc(N)cc2F)ccc2c3ocnc3c(=O)n(C3CC3)c12 [Compound 5, 7-(4-amino-2-fluoro-phenyl)-5-cyclopropyl-6-methyl-oxazolo[4,5-c]quinolin-4-one]	10 to 100 (≈ 28.6 to 286 µM)	< 1	< 1	1 to 10 (≈ 2.86 to 28.6 µM)	> 100	< 1
Cc1nc2c(=O)n(C3CC3)c3c(C)c(-c4ccc(C(=O)O)cc4)ccc3c2o1 [Compound 8, 4-(5-cyclopropyl-2,6-dimethyl-4-oxo-oxazolo[4,5-c]quinolin-7-yl)benzoic acid]	> 100	10 to 100 (≈ 26.7 to 267 µM)	> 100	> 100	> 100	1 to 10 (≈ 2.67 to 26.7 µM)
Cc1nc2c(=O)n(C3CC3)c3c(C)c(-c4ccc(CN)cc4)ccc3c2o1 [Compound 9, 7-[4-{aminomethyl)phenyl]-5-cyclopropyl-2,6-dimethyl-oxazolo[4,5-c]quinolin-4-one]	10 to 100 (≈ 27.8 to 278 µM)	< 1	< 1	1 to 10 (≈ 2.78 to 27.8 µM)	> 100	1 to 10 (≈ 2.78 to 27.8 µM)
Cc1nc2c(=O)n(C3CC3)c3c(C)c(-c4ccc5[nH]ncc5c4)ccc3c2o1 [Compound 10, 5-cyclopropyl-7-(1H-indazol-5-yl)-2,6-dimethyl-oxazolo{4,5-c]quinolin-4-one]	10 to 100 (≈ 27 to 270 µM)	< 1	< 1	> 100	> 100	10 to 100 (≈ 27 to 270 µM)
Cc1nc2c(=O)n(C3CC3)c3c(C)c(-c4cnn(C5CN(C(=O)OC(C)(C)C)C5)c4)ccc3c2o1 [Compound 11, tert-butyl 3-[4-(5-cyclopropyl-2,6-dimethyl-4-oxo-oxazolo[4,5-c]quinolin-7-yl)pyrazol-1-yl]azetidine-1-carboxylate]	> 100	1 to 10 (≈ 2.1 to 21 µM)	1 to 10 (≈ 2.1 to 21 µM)	> 100	> 100	10 to 100 (≈ 21 to 210 µM)
Cc1c(-c2cc(F)c(N)c(F)c2)ccc2c3ocnc3c(=O)n(C3CC3)c12 [Compound 19]	10 to 100 (≈ 27.2 to 272 µM)	< 1	< 1	> 100	> 100	1 to 10 (≈ 2.72 to 27.2 µM)
Cc1c(-c2cc(F)c(C(C)O)cc2F)ccc2c3ocnc3c(=O)n(C3CC3)c12 (stereo not shown) [Compound 22, 5-cyclopropyl-7-[2,5-difluoro-4-(1-hydroxyethyl)phenyl]-6-methyl-oxazolo[4,5-c]quinolin-4-one]	10 to 100 (≈ 25.2 to 252 µM)	< 1	< 1	1 to 10 (≈ 2.52 to 25.2 µM)	10 to 100 (≈ 25.2 to 252 µM)	1 to 10 (≈ 2.52 to 25.2 µM)
Cc1nc2c(=O)n(C3CC3)c3cc(-c4ccncc4F)c(F)cc3c2o1 [Compound 74, 5-cyclopropyl-8-fluoro-7-(3-fluoro-4-pyridyl)-2-methyl-oxazolo[4,5-c]quinolin-4-one]	–	10 to 100 (≈ 28.3 to 283 µM)	10 to 100 (≈ 28.3 to 283 µM)	10 to 100 (≈ 28.3 to 283 µM)	> 100	1 to 10 (≈ 2.83 to 28.3 µM)
Cc1nc2c(=O)n(C3CC3)c3cc(-c4ccncc4)c(F)cc3c2o1 [Compound 75, 5-cyclopropyl-8-fluoro-2-methyl-7-(4-pyridyl)oxazolo[4,5-c]quinolin-4-one]	–	1 to 10 (≈ 2.98 to 29.8 µM)	1 to 10 (≈ 2.98 to 29.8 µM)	10 to 100 (≈ 29.8 to 298 µM)	> 100	1 to 10 (≈ 2.98 to 29.8 µM)
CC(=O)c1cc(F)c(-c2cc3c(cc2F)c2oc(C)nc2c(=O)n3C2CC2)cc1F [Compound 77, 7-(4-acetyl-2,5-difluoro-phenyl)-5-cyclopropyl-8-fluoro-2-methyl-oxazolo[4,5-c]quinolin-4-one]	–	10 to 100 (≈ 24.3 to 243 µM)	10 to 100 (≈ 24.3 to 243 µM)	> 100	> 100	> 100
Cc1nc2c(=O)n(C3CC3)c3cc(-c4cc(F)c(C(N)=O)cc4F)c(F)cc3c2o1 [Compound 78, 4-(5-cyclopropyl-8-fluoro-2-methyl-4-oxo-oxazolo[4,5-c]quinolin-7-yl)-2,5-difluoro-benzamide]	–	> 100	> 100	> 100	> 100	10 to 100 (≈ 24.2 to 242 µM)
NC1C2CN(c3nc4c(cc3F)c3ocnc3c(=O)n4C3CC3)CC12 (stereo not shown) [Compound 82, 7-(6-amino-3-azabicyclo[3.1.0]hexan-3-yl)-5-cyclopropyl-8-fluoro-oxazolo[4,5-c][1,8]naphthyridin-4-one]	–	10 to 100 (≈ 29.3 to 293 µM)	10 to 100 (≈ 29.3 to 293 µM)	1 to 10 (≈ 2.93 to 29.3 µM)	> 100	10 to 100 (≈ 29.3 to 293 µM)
CN(C)C1CCN(c2nc3c(cc2F)c2ocnc2c(=O)n3C2CC2)C1 (stereo not shown) [Compound 83, 5-cyclopropyl-7-[3-(dimethylamino)pyrrolidin-1-yl]-8-fluoro-oxazolo[4,5-c][1,8]naphthyridin-4-one]	–	10 to 100 (≈ 28 to 280 µM)	10 to 100 (≈ 28 to 280 µM)	1 to 10 (≈ 2.8 to 28 µM)	> 100	10 to 100 (≈ 28 to 280 µM)
Nc1cc(-c2nc3c(cc2F)c2ocnc2c(=O)n3C2CC2)c(F)cc1F [Compound 85, 7-(5-amino-2,4-difluorophenyl)-5-cyclopropyl-8-fluoro-oxazolo[4,5-c]1,8-naphthyridin-4-one]	–	10 to 100 (≈ 26.9 to 269 µM)	10 to 100 (≈ 26.9 to 269 µM)	10 to 100 (≈ 26.9 to 269 µM)	> 100	1 to 10 (≈ 2.69 to 26.9 µM)
Cc1nc2c(=O)n(C3CC3)c3nc(-c4cc(F)c(N)cc4F)c(F)cc3c2o1 [Compound 86, 7-(4-amino-2,5-difluorophenyl)-5-cyclopropyl-8-fluoro-2-methyl-oxazolo[4,5-c]1,8-naphthyridin-4-one]	–	> 100	10 to 100 (≈ 25.9 to 259 µM)	> 100	> 100	10 to 100 (≈ 25.9 to 259 µM)
Cc1nc2c(=O)n(C3CC3)c3nc(-c4ccc5[nH]ncc5c4)c(F)cc3c2o1 [Compound 87]	–	> 100	10 to 100 (≈ 26.6 to 266 µM)	> 100	> 100	10 to 100 (≈ 26.6 to 266 µM)

Further lines, results first:

IC50 [1] [µg/mL]	MIC [2, 6] [µg/mL]	MIC [2, 7] [µg/mL]	MIC [3] [µg/mL]	MIC [4] [µg/mL]	MIC [5] [µg/mL]	Compound
–	10 to 100 (≈ 26.9 to 269 µM)	10 to 100 (≈ 26.9 to 269 µM)	10 to 100 (≈ 26.9 to 269 µM)	> 100	1 to 10 (≈ 2.69 to 26.9 µM)	Cc1nc2c(=O)n3c4c(c(N5CCN(C)CC5)c(F)cc4c2o1)OC[C@@H]3C [Compound 91]
–	1 to 10 (≈ 2.98 to 29.8 µM)	1 to 10 (≈ 2.98 to 29.8 µM)	10 to 100 (≈ 29.8 to 298 µM)	10 to 100 (≈ 29.8 to 298 µM)	1 to 10 (≈ 2.98 to 29.8 µM)	C[C@H]1COc2c(-c3cnc(N)nc3)ccc3c4ocnc4c(=O)n1c23 [Compound 94, (2S)-6-(2-aminopyrimidin-5-yl)-2-methyl-4,11-dioxa-1,13-diazatetracyclo[7.6.1.0^5,^16.0^10,^14]hexadeca-5(16),6,8,10(14),12-pentaen-15-one]
–	< 1	< 1	1 to 10 (≈ 2.79 to 27.9 µM)	10 to 100 (≈ 27.9 to 279 µM)	1 to 10 (≈ 2.79 to 27.9 µM)	COc1c(N2CCC(N)C2)c(F)cc2c3ocnc3c(=O)n(C3CC3)c12 (stereo not shown) [Compound 97, 7-(3-aminopyrrolidin-1-yl)-5-cyclopropyl-8-fluoro-6-methoxyoxazolo[4,5-c]quinolin-4-one]
–	1 to 10 (≈ 2.57 to 25.7 µM)	1 to 10 (≈ 2.57 to 25.7 µM)	> 100	> 100	10 to 100 (≈ 25.7 to 257 µM)	Cc1c(-c2ccc(C(=O)O)cc2)ccc2c3oc(CN)nc3c(=O)n(C3CC3)c12 [Compound 102, 4-[2-(aminomethyl)-5-cyclopropyl-6-methyl-4-oxo-oxazolo[4,5-c]quinolin-7-yl]benzoic acid]
–	1 to 10 (≈ 2.76 to 27.6 µM)	1 to 10 (≈ 2.76 to 27.6 µM)	1 to 10 (≈ 2.76 to 27.6 µM)	10 to 100 (≈ 27.6 to 276 µM)	< 1	Cc1c(-c2cnc(N)nc2)ccc2c3oc(CN)nc3c(=O)n(C3CC3)c12 [Compound 103, 2-(aminomethyl)-7-(2-aminopyrimidin-5-yl)-5-cyclopropyl-6-methyl-oxazolo[4,5-c]quinolin-4-one]
–	1 to 10 (≈ 2.68 to 26.8 µM)	1 to 10 (≈ 2.68 to 26.8 µM)	> 100	10 to 100 (≈ 26.8 to 268 µM)	10 to 100 (≈ 26.8 to 268 µM)	CCn1c(=O)c2ncoc2c2cc(F)c(-c3cc(F)c(N)cc3F)c(C)c21 [Compound 104, 7-(4-amino-2,5-difluoro-phenyl)-5-ethyl-8-fluoro-6-methyl-oxazolo[4,5-c]quinolin-4-one]
–	10 to 100 (≈ 26.8 to 268 µM)	10 to 100 (≈ 26.8 to 268 µM)	10 to 100 (≈ 26.8 to 268 µM)	10 to 100 (≈ 26.8 to 268 µM)	10 to 100 (≈ 26.8 to 268 µM)	CCn1c(=O)c2ncoc2c2cc(F)c(-c3cc(N)c(F)cc3F)c(C)c21 [Compound 105, 7-(5-amino-2,4-difluoro-phenyl)-5-ethyl-8-fluoro-6-methyl-oxazolo[4,5-c]quinolin-4-one]
–	10 to 100 (≈ 29.6 to 296 µM)	10 to 100 (≈ 29.6 to 296 µM)	> 100	> 100	10 to 100 (≈ 29.6 to 296 µM)	CCn1c(=O)c2ncoc2c2cc(F)c(-c3ccc(N)nc3)c(C)c21 [Compound 106, 7-(6-amino-3-pyridyl)-5-ethyl-8-fluoro-6-methyl-oxazolo[4,5-c]quinolin-4-one]
–	10 to 100 (≈ 28.1 to 281 µM)	10 to 100 (≈ 28.1 to 281 µM)	> 100	> 100	> 100	CCn1c(=O)c2ncoc2c2cc(F)c(-c3ccc(N)c(F)c3)c(C)c21 [Compound 107, 7-(4-amino-3-fluoro-phenyl)-5-ethyl-8-fluoro-6-methyl-oxazolo[4,5-c]quinolin-4-one]
